Values after ≈ are worked out from the molar mass of the structure shown.
Columns and labels:
[1] = system: Mycobacterium tuberculosis; assay: Tuberculostatic activity against Mycobacterium tuberculosis Spec. 192 by two-fold classical test-tube method; format: functional
[2] = system: Mycobacterium tuberculosis; assay: Tuberculostatic activity against Mycobacterium tuberculosis Spec. 210 by two-fold classical test-tube method; format: functional
[3] = system: Mycobacterium tuberculosis; assay: Tuberculostatic activity against Mycobacterium tuberculosis H37Rv by two-fold classical test-tube method; format: functional
[4] = Cytotoxicity against neonatal HDF cells after 7 days by MTT/SRB assay; format: cell-based; conditions: Homo sapiens, 168 h
[5] = Selectivity ratio of IC50 for mouse B16F10 cells to MIC for Mycobacterium tuberculosis Spec. 210; format: ADME, cell-based, B16-F10
[6] = Cytotoxicity against HEK cells after 7 days by MTT/SRB assay; format: cell-based; conditions: Homo sapiens, HEK293, 168 h
[7] = Selectivity ratio of IC50 for mouse B16F10 cells to MIC for Mycobacterium tuberculosis Spec. 192; format: ADME, cell-based, B16-F10
[8] = Selectivity ratio of IC50 for neonatal HDF cells to MIC for Mycobacterium tuberculosis Spec. 210; format: ADME, cell-based; conditions: human
[9] = Selectivity ratio of IC50 for neonatal HDF cells to MIC for Mycobacterium tuberculosis Spec. 192; format: ADME, cell-based; conditions: human
[10] = Cytotoxicity against mouse B16F10 cells after 7 days by MTT/SRB assay; format: cell-based; conditions: B16-F10, 168 h
[11] = Selectivity ratio of IC50 for neonatal HDF cells to MIC for Mycobacterium tuberculosis H37Rv; format: ADME, cell-based; conditions: human
[12] = Selectivity ratio of IC50 for mouse B16F10 cells to MIC for Mycobacterium tuberculosis H37Rv; format: ADME, cell-based, B16-F10

Structure (SMILES) | MIC [1] [µM] | MIC [2] [µM] | MIC [3] [µM] | also measured
O=S(=O)(c1ccccc1)n1c(CCc2ccccc2)nc2cc(F)ccc21 | 263 (≈ 100 µg/mL) | 263 (≈ 100 µg/mL) | 263 (≈ 100 µg/mL) | 
CO[C@H]1/C=C/O[C@@]2(C)Oc3c(C)c(O)c4c(O)c(c(/C=N/N5CCN(C)CC5)c(O)c4c3C2=O)NC(=O)/C(C)=C\C=C\[C@H](C)[C@H](O)[C@@H](C)[C@@H](O)[C@@H](C)[C@H](OC(C)=O)[C@@H]1C [RIFAMPIN] | 1.4 (≈ 1.15 µg/mL) | 2.8 (≈ 2.3 µg/mL) | 1.4 (≈ 1.15 µg/mL) | 
CS(=O)(=O)n1c(CCc2ccccc2)nc2cc(F)ccc21 | 314 (≈ 100 µg/mL) | 314 (≈ 100 µg/mL) | 314 (≈ 100 µg/mL) | 
Clc1cc(Cl)cc(CCc2nc3cc4ccccc4cc3[nH]2)c1 | 18 (≈ 6.14 µg/mL) | 18 (≈ 6.14 µg/mL) | 18 (≈ 6.14 µg/mL) | 
CS(=O)(=O)n1c(/C=C/c2cc(Cl)cc(Cl)c2)nc2cc(F)ccc21 | 259 (≈ 99.8 µg/mL) | 130 (≈ 50.1 µg/mL) | 130 (≈ 50.1 µg/mL) | 
Fc1ccc2[nH]c(/C=C/c3ccccc3)nc2c1 | 210 (≈ 50 µg/mL) | 105 (≈ 25 µg/mL) | 210 (≈ 50 µg/mL) | 
NNC(=O)c1ccncc1 [ISONIAZID] | 91 (≈ 12.5 µg/mL) | 182 (≈ 25 µg/mL) | 91 (≈ 12.5 µg/mL) | 
C(=C\c1nc2cc3ccccc3cc2[nH]1)/c1ccccc1 | 93 (≈ 25.1 µg/mL) | 93 (≈ 25.1 µg/mL) | 93 (≈ 25.1 µg/mL) | 
Cc1cc2nc(CCc3cc(Cl)cc(Cl)c3)[nH]c2cc1C | 5 (≈ 1.6 µg/mL) | 5 (≈ 1.6 µg/mL) | 2.5 (≈ 0.798 µg/mL) | IC50 [4]: 58 µM; selectivity ratio [5]: 6; IC50 [6]: 7.8 µM; selectivity ratio [7]: 6; selectivity ratio [8]: > 11; selectivity ratio [9]: > 11; IC50 [10]: 28 µM
O=[N+]([O-])c1cc(Cl)cc2[nH]c(/C=C/c3ccccc3)nc12 | 170 (≈ 51 µg/mL) | 340 (≈ 102 µg/mL) | 170 (≈ 51 µg/mL) | 
Cc1cc2nc(CCc3cc(Cl)cc(Cl)c3)n(S(=O)(=O)c3ccccc3)c2cc1C | 55 (≈ 25.3 µg/mL) | 55 (≈ 25.3 µg/mL) | 55 (≈ 25.3 µg/mL) | 
O=S(=O)(c1ccccc1)n1c(CCc2cc(Cl)cc(Cl)c2)nc2cc(F)ccc21 | 112 (≈ 50.3 µg/mL) | 56 (≈ 25.2 µg/mL) | 56 (≈ 25.2 µg/mL) | 
c1ccc(CCc2nc3cc4ccccc4cc3[nH]2)cc1 | 370 (≈ 101 µg/mL) | 370 (≈ 101 µg/mL) | 370 (≈ 101 µg/mL) | 
Cc1cc2nc(/C=C/c3ccccc3)n(S(=O)(=O)c3ccccc3)c2cc1C | 258 (≈ 100 µg/mL) | 258 (≈ 100 µg/mL) | 258 (≈ 100 µg/mL) | 
Cc1cc2nc(CCc3cc(Cl)cc(Cl)c3)n(S(C)(=O)=O)c2cc1C | 63 (≈ 25 µg/mL) | 32 (≈ 12.7 µg/mL) | 32 (≈ 12.7 µg/mL) | 
Cc1cc2nc(/C=C/c3ccccc3)n(S(C)(=O)=O)c2cc1C | 310 (≈ 101 µg/mL) | 310 (≈ 101 µg/mL) | 310 (≈ 101 µg/mL) | 
Fc1ccc2[nH]c(CCc3cc(Cl)cc(Cl)c3)nc2c1 | 320 (≈ 98.9 µg/mL) | 320 (≈ 98.9 µg/mL) | 320 (≈ 98.9 µg/mL) | 
O=[N+]([O-])c1cc(Cl)cc2[nH]c(CCc3ccccc3)nc12 | 330 (≈ 99.6 µg/mL) | 330 (≈ 99.6 µg/mL) | 330 (≈ 99.6 µg/mL) | 
NC(=O)c1cnccn1 [PYRAZINAMIDE] | 203 (≈ 25 µg/mL) | 3250 (≈ 400 µg/mL) | 203 (≈ 25 µg/mL) | 
CS(=O)(=O)n1c(/C=C/c2ccccc2)nc2cc(F)ccc21 | 158 (≈ 50 µg/mL) | 158 (≈ 50 µg/mL) | 158 (≈ 50 µg/mL) | 
O=S(=O)(c1ccccc1)n1c(/C=C/c2ccccc2)nc2cc(F)ccc21 | 132 (≈ 50 µg/mL) | 264 (≈ 99.9 µg/mL) | 132 (≈ 50 µg/mL) | 
Cc1cc2nc(/C=C/c3ccccc3)[nH]c2cc1C | 13 (≈ 3.23 µg/mL) | 25 (≈ 6.21 µg/mL) | 25 (≈ 6.21 µg/mL) | 
Fc1ccc2[nH]c(CCc3ccccc3)nc2c1 | 208 (≈ 50 µg/mL) | 208 (≈ 50 µg/mL) | 104 (≈ 25 µg/mL) | 
Nc1c(NC(=O)/C=C/c2ccccc2)cc(Cl)cc1[N+](=O)[O-] | 320 (≈ 102 µg/mL) | 320 (≈ 102 µg/mL) | 320 (≈ 102 µg/mL) | 
O=[N+]([O-])c1cc(Cl)cc2[nH]c(CCc3cc(Cl)cc(Cl)c3)nc12 | 68 (≈ 25.2 µg/mL) | 271 (≈ 100 µg/mL) | 68 (≈ 25.2 µg/mL) | 
Cc1cc2nc(CCc3ccccc3)n(S(=O)(=O)c3ccccc3)c2cc1C | 64 (≈ 25 µg/mL) | 128 (≈ 50 µg/mL) | 128 (≈ 50 µg/mL) | 
Cc1cc2nc(CCc3ccccc3)[nH]c2cc1C | 6.3 (≈ 1.58 µg/mL) | 6.3 (≈ 1.58 µg/mL) | 6.3 (≈ 1.58 µg/mL) | IC50 [4]: 7.9 µM; IC50 [6]: 2.5 µM; IC50 [10]: 3.9 µM
Cc1cc2nc(CCc3ccccc3)n(S(C)(=O)=O)c2cc1C | 76 (≈ 25 µg/mL) | 76 (≈ 25 µg/mL) | 76 (≈ 25 µg/mL) | 
Nc1c(NC(=O)CCc2ccccc2)cc(Cl)cc1[N+](=O)[O-] | 320 (≈ 102 µg/mL) | 320 (≈ 102 µg/mL) | 320 (≈ 102 µg/mL) | 
Nc1c(NC(=O)CCc2cc(Cl)cc(Cl)c2)cc(Cl)cc1[N+](=O)[O-] | 8 (≈ 3.11 µg/mL) | 65 (≈ 25.3 µg/mL) | 8 (≈ 3.11 µg/mL) | IC50 [4]: 80 µM; selectivity ratio [11]: 10; selectivity ratio [12]: 7.5; IC50 [6]: 5.1 µM; selectivity ratio [7]: 7.5; selectivity ratio [9]: 10; IC50 [10]: 59 µM
